Where two headings read alike, the source gives them in different places. Residues, ends and D or L forms follow the SMILES beside them.
What was measured:
[1] = tested on: cells of rat pituitary glands; format: cell-based
Experimental: To determine the effectiveness of the peptides to inhibit the release of growth hormone, in vitro radioimmunoassays are carried out using the SS-28 analogs in side-by-side comparison with equimolar concentrations of somotostatin-14 having a known effectiveness to inhibit the release of growth hormone induced by the application of isobutyl methyl xanthine to pituitary cells. Cultures are used which include cells of rat pituitary glands removed some four to five days previously in a system that minimizes enzymatic degradation, generally following the procedure set forth in Vale et al., Methods in Enzymology, Hormones and Cyclic Nucleotides (1975) Vol. 37, p. 82. Both cultures of a defined standard medium and cultures which are considered optimal for the secretion of growth hormone, as a result of having additions of either 2% or 10% of serum from a foetal calf, are used for the comparative testing.

[2] = tested on: insulin secretion; format: in vivo, rats
Experimental: (§1) In vivo experiments are carried out with the SS-28 analogs, using the procedure described in Brown et al., Metabolism (1976) Vol. 25, pp. 1501-1503, to determine the potency, relative to somatostatin-14 to inhibit the secretion of glucagon and insulin stimulated by the administration of arginine to groups of six rats.

[3] = tested on: glucagon secretion; format: in vivo, rats
Experimental: as §1

[4] = juvenile-type diabetics, complete absence of circulating insulin; cited from earlier work
[5] = rats, arginine-stimulated secretion, SS-14 = 1

SMILES	In Vitro Growth Hormone (potency to inhibit release, relative to SS-14) [1]	In Vivo Insulin (potency to inhibit secretion, relative to SS-14) ([2]; rat, in vivo)	In Vivo Glugacon (potency to inhibit secretion, relative to SS-14) ([3]; rat, in vivo)	In Vitro Growth Hormone (potency to inhibit release, relative to SS-14) ([1]; rat pituitary cell cultures, isobutyl methyl xanthine-induced GH release, SS-14 = 1)	In Vivo Insulin (potency to inhibit secretion, relative to SS-14) [2, 5]	In Vivo Glugacon (potency to inhibit secretion, relative to SS-14) [3, 5]	diminution of fasting hyperglycemia [4] [%]
CC(C)C[C@H](NC(=O)[C@H](C)NC(=O)[C@@H]1CCCN1C(=O)[C@H](CC(N)=O)NC(=O)[C@H](CO)NC(=O)[C@H](CC(N)=O)NC(=O)[C@H](C)NC(=O)[C@@H](N)CO)C(=O)N[C@@H](C)C(=O)N1CCC[C@H]1C(=O)N[C@@H](CCCNC(=N)N)C(=O)N[C@@H](CCC(=O)O)C(=O)N[C@@H](CCCNC(=N)N)C(=O)N[C@@H](CCCCN)C(=O)N[C@@H](C)C(=O)NCC(=O)N[C@H]1CSSC[C@@H](C(=O)O)NC(=O)[C@H](CO)NC(=O)[C@H]([C@@H](C)O)NC(=O)[C@H](Cc2ccc(O)cc2)NC(=O)[C@H]([C@@H](C)O)NC(=O)[C@H](CCCCN)NC(=O)[C@@H](Cc2c[nH]c3ccccc23)NC(=O)[C@H](Cc2ccccc2)NC(=O)[C@H](Cc2ccccc2)NC(=O)[C@H](CC(N)=O)NC(=O)[C@H](CCCCN)NC1=O [Peptide 1, [Leu^8, D-Trp^22, Tyr^25]--SS-28] (HELM PEPTIDE1{S.A.N.S.N.P.A.L.A.P.R.E.R.K.A.G.C.K.N.F.F.[dW].K.T.Y.T.S.C}$PEPTIDE1,PEPTIDE1,17:R3-28:R3$$$V2.0)	4.84	–	–	–	–	–	–
CSCC[C@H](NC(=O)[C@H](C)NC(=O)[C@@H]1CCCN1C(=O)[C@H](CC(N)=O)NC(=O)[C@H](CO)NC(=O)[C@H](CC(N)=O)NC(=O)[C@H](C)NC(=O)[C@@H](N)CO)C(=O)N[C@@H](C)C(=O)N1CCC[C@H]1C(=O)N[C@@H](CCCNC(=N)N)C(=O)N[C@@H](CCC(=O)O)C(=O)N[C@@H](CCCNC(=N)N)C(=O)N[C@@H](CCCCN)C(=O)N[C@@H](C)C(=O)NCC(=O)N[C@H]1CSSC[C@@H](C(=O)O)NC(=O)[C@@H](CO)NC(=O)[C@H]([C@@H](C)O)NC(=O)[C@H](Cc2ccccc2)NC(=O)[C@H]([C@@H](C)O)NC(=O)[C@H](CCCCN)NC(=O)[C@@H](Cc2c[nH]c3ccccc23)NC(=O)[C@H](Cc2ccccc2)NC(=O)[C@H](Cc2ccccc2)NC(=O)[C@H](CCCCN)NC1=O [Peptide 3, desAsn^19 [D-Trp^22, D-Ser^27]--SS-28] (HELM PEPTIDE1{S.A.N.S.N.P.A.M.A.P.R.E.R.K.A.G.C.K.F.F.[dW].K.T.F.T.[dS].C}$PEPTIDE1,PEPTIDE1,17:R3-27:R3$$$V2.0)	0.1	145	1	–	–	–	–
CSCC[C@H](NC(=O)[C@H](C)NC(=O)[C@@H]1CCCN1C(=O)[C@H](CC(N)=O)NC(=O)[C@H](CO)NC(=O)[C@H](CC(N)=O)NC(=O)[C@H](C)NC(=O)[C@@H](N)CO)C(=O)N[C@@H](C)C(=O)N1CCC[C@H]1C(=O)N[C@@H](CCCNC(=N)N)C(=O)N[C@@H](CCC(=O)O)C(=O)N[C@@H](CCCNC(=N)N)C(=O)N[C@@H](CCCCN)C(=O)N[C@@H](C)C(=O)NCC(=O)N[C@H]1CSSC[C@H](C(=O)O)NC(=O)[C@H](CO)NC(=O)[C@H](Cc2ccccc2)NC(=O)[C@H]([C@@H](C)O)NC(=O)[C@H](CCCCN)NC(=O)[C@@H](Cc2c[nH]c3ccccc23)NC(=O)[C@H](Cc2ccccc2)NC(=O)[C@H](Cc2ccccc2)NC1=O [Peptide 4, desAA^18,19,26 [D-Trp^22,D-Cys^28]--SS-28] (HELM PEPTIDE1{S.A.N.S.N.P.A.M.A.P.R.E.R.K.A.G.C.F.F.[dW].K.T.F.S.[dC]}$PEPTIDE1,PEPTIDE1,17:R3-25:R3$$$V2.0)	1.51	18	14	–	–	–	–
C[C@H](N)C(=O)NCC(=O)N[C@H]1CSSC[C@@H](C(=O)O)NC(=O)[C@H](CO)NC(=O)[C@H]([C@@H](C)O)NC(=O)[C@H](Cc2ccccc2)NC(=O)[C@H]([C@@H](C)O)NC(=O)[C@H](CCCCN)NC(=O)[C@H](Cc2c[nH]c3ccccc23)NC(=O)[C@H](Cc2ccccc2)NC(=O)[C@H](Cc2ccccc2)NC(=O)[C@H](CC(N)=O)NC(=O)[C@H](CCCCN)NC1=O [SS-14, somatostatin]	–	–	–	1	1	1	≤ 50
